Reference: the supplement of paper PMC10307832

How the values were obtained:
Experiment in all cases: relative viability (nuclei count vs DMSO), 5 days (fraction); higher = more cells survive
VE-821 + Alpelisib = compound: CS(=O)(=O)c1ccc(-c2cnc(N)c(C(=O)Nc3ccccc3)n2)cc1 [VE-821] + Cc1nc(NC(=O)N2CCC[C@H]2C(N)=O)sc1-c1ccnc(C(C)(C)C(F)(F)F)c1 [Alpelisib] (partner 2 µM)
Outline: (§1)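 Values are medians from duplicate plates. Each reflects relative viability, defined as the nuclei count of treated wells over that of vehicle wells. Lung cancer cell lines in 1536-well plates were pin-tool dosed one day after seeding with one drug alone or with a fixed anchor-drug dose plus five library-drug doses (not always all listed) in √10 steps, then fixed, stained and imaged at 4× after 5 days.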

Vismodegib + Trametinib = compound: CS(=O)(=O)c1ccc(C(=O)Nc2ccc(Cl)c(-c3ccccn3)c2)c(Cl)c1 [Vismodegib] + CC(=O)Nc1cccc(-n2c(=O)n(C3CC3)c(=O)c3c(Nc4ccc(I)cc4F)n(C)c(=O)c(C)c32)c1 [Trametinib] (partner 0.02 µM)
Outline: as §1

Vismodegib + Vorinostat = compound: CS(=O)(=O)c1ccc(C(=O)Nc2ccc(Cl)c(-c3ccccn3)c2)c(Cl)c1 [Vismodegib] + O=C(CCCCCCC(=O)Nc1ccccc1)NO [Vorinostat] (partner 1 µM)
Outline: as §1

Ruxolitinib + Dasatinib = compound: N#CC[C@H](C1CCCC1)n1cc(-c2ncnc3[nH]ccc23)cn1 [Ruxolitinib] + Cc1nc(Nc2ncc(C(=O)Nc3c(C)cccc3Cl)s2)cc(N2CCN(CCO)CC2)n1 [Dasatinib] (partner 0.075 µM)
Outline: as §1

Cell Line	relative viability (VE-821 + Alpelisib; first compound 0.08 µM)	relative viability (VE-821 + Alpelisib; first compound 0.253 µM)	relative viability (VE-821 + Alpelisib; first compound 0.8 µM)	relative viability (VE-821 + Alpelisib; first compound 2.53 µM)	relative viability (VE-821 + Alpelisib; first compound 8 µM)	relative viability (Vismodegib + Trametinib; first compound 0.08 µM)	relative viability (Vismodegib + Trametinib; first compound 0.253 µM)	relative viability (Vismodegib + Trametinib; first compound 0.8 µM)	relative viability (Vismodegib + Trametinib; first compound 2.53 µM)	relative viability (Vismodegib + Trametinib; first compound 8 µM)	relative viability (Vismodegib + Vorinostat; first compound 0.08 µM)	relative viability (Vismodegib + Vorinostat; first compound 0.253 µM)	relative viability (Vismodegib + Vorinostat; first compound 0.8 µM)	relative viability (Vismodegib + Vorinostat; first compound 2.53 µM)	relative viability (Vismodegib + Vorinostat; first compound 8 µM)	relative viability (Ruxolitinib + Dasatinib; first compound 0.08 µM)	relative viability (Ruxolitinib + Dasatinib; first compound 0.253 µM)	relative viability (Ruxolitinib + Dasatinib; first compound 0.8 µM)	relative viability (Ruxolitinib + Dasatinib; first compound 2.53 µM)	relative viability (Ruxolitinib + Dasatinib; first compound 8 µM)
COR-L 105	1	1	0.674	0.891	0.58	0.451	0.517	0.435	0.385	0.475	0.94	0.803	0.829	0.826	0.71	0.313	0.295	0.326	0.214	0.23
H3255	0.821	0.76	0.665	0.844	0.66	0.648	0.602	0.573	0.614	0.668	0.488	0.747	0.915	0.835	0.782	0.301	0.402	0.421	0.282	0.31
NCI-H441	0.902	0.801	0.682	0.672	0.744	0.512		0.409	0.469	0.489	0.875		0.552	0.678	0.839	0.507	0.432	0.698	0.396	0.672
NCI-H2347	1.08	0.997	0.916	1.18	0.977	0.311	0.286	0.265	0.301	0.288	0.553	0.616	0.519	0.711	0.507	0.295	0.341	0.297	0.29	0.333
CAL-12T	1.22	1.08	1.37	1.32	0.837	0.309	0.333	0.372	0.355	0.426	0.894	0.699	0.787	0.705	0.799	0.497	0.546	0.561	0.25	0.163
HCC-827	1.05	0.972	0.784	1.07	0.825	0.519	0.491	0.528	0.522	0.509	0.878	0.903	0.909	0.774	0.861	0.133	0.3	0.346	0.231	0.199
NCI-H520	0.953	1.1		0.883	0.784	0.702	0.554	0.768	0.692	0.74	0.71	0.697	0.747	0.553	0.701	0.239		0.183	0.159	0.163
A-427	1.01	1.03	1.08	1.12	0.706	0.812	0.82	0.654	0.777	0.913	0.923	0.862	0.814	0.872	0.84	0.74	0.751	0.66	0.441	0.463
NCI-H650	1.19	1.25	0.932	1.19	1.1	0.891	0.91	0.846	0.981	1.05	0.434	0.413	0.353	0.392	0.488		0.366	0.453	0.295	0.293
NCI-H727	0.687	0.683	0.585	0.551	0.425	0.446	0.367	0.405	0.403	0.418	1.21	1.32	1.1	1.18	1.2	0.396	0.303	0.456	0.469	0.451
NCI-H1793	0.689	0.681	0.497	0.727	0.687		0.366	0.479	0.409	0.413		0.717	0.733	0.734	0.748	0.286	0.394	0.389	0.303	0.243
NCI-H23	0.734	0.69	0.512	0.624	0.416	0.511	0.353	0.368	0.411	0.482	0.622	0.568	0.496	0.434	0.571	0.536	0.679	0.8	0.597	0.517
SK-LU-1	1.02	0.964	0.803	0.499	0.328	0.441	0.473	0.54	0.441	0.444	0.718	0.827	0.784	0.718	0.842	0.206	0.166	0.166	0.135	0.164
NCI-H1395	1.46	1.08	0.705	1.14	0.659	0.851	0.958	0.878	0.921	1.1	0.681	0.663	0.614	0.522	0.8	0.387	0.374	0.42	0.434	0.361
NCI-H2170	0.979	0.808	0.624	0.777	0.543	0.89	0.897	1	0.857	0.987	0.83	0.712	0.824	0.815	0.838	0.691	0.681	0.627	0.599	0.483
LOU-NH91	0.747	0.738	0.66	0.75	0.702	0.762	0.804	0.8	0.786	0.772	0.884	0.899	0.793	0.845	0.885		0.461	0.556	0.496	0.439
NCI-H647	1.17	1.07	0.944	0.901	0.424	0.446	0.486	0.517	0.409	0.55	0.586	0.424	0.63	0.511	0.654	0.207	0.155	0.182	0.0851	0.106
